Laboratory results published in the NIST ThermoML archive (doi:10.1021/je7001013).

What was measured:
[1] = refractive index (Na D-line) (dimensionless); xn = mol fraction of the nth substance listed; conditions: 101 kPa, Liquid
[2] = xn = mol fraction of the nth substance listed; conditions: Maximal bubble pressure

C[S+](C)[O-] [dimethyl sulfoxide] + O
Conditions	refractive index, [1]	surface tension liquid-gas, [2] [mN/m]
298.15 K, x1 = 0.0121	1.34	71
298.15 K, x1 = 0.0202	1.344	69.7
298.15 K, x1 = 0.1044	–	61.2
298.15 K, x1 = 0.1467	1.396	–
298.15 K, x1 = 0.1979	–	56.7
298.15 K, x1 = 0.2455	1.4215	–
298.15 K, x1 = 0.2507	–	55.4
298.15 K, x1 = 0.2959	1.4305	–
298.15 K, x1 = 0.2999	–	53.3
298.15 K, x1 = 0.3187	–	53.1
298.15 K, x1 = 0.3213	1.4345	–
298.15 K, x1 = 0.3536	–	52.6
298.15 K, x1 = 0.3713	1.4415	–
298.15 K, x1 = 0.3802	–	52
298.15 K, x1 = 0.3967	1.4445	–
298.15 K, x1 = 0.4191	–	51
298.15 K, x1 = 0.4301	1.4475	–
298.15 K, x1 = 0.4523	–	50.3
298.15 K, x1 = 0.501	–	48.3
298.15 K, x1 = 0.59	–	46
298.15 K, x1 = 0.5964	1.461	–
298.15 K, x1 = 0.7027	–	44
298.15 K, x1 = 0.7685	1.47	–
298.15 K, x1 = 0.8088	–	42.6
298.15 K, x1 = 0.8945	–	42
303.15 K, x1 = 0.0121	1.339	70.1
303.15 K, x1 = 0.0202	1.3435	68.7
303.15 K, x1 = 0.1044	–	60.6
303.15 K, x1 = 0.1467	1.4005	–
303.15 K, x1 = 0.1979	–	55.8
303.15 K, x1 = 0.2455	1.42	–
303.15 K, x1 = 0.2507	–	54.5
303.15 K, x1 = 0.2959	1.4295	–
303.15 K, x1 = 0.2999	–	52.4
303.15 K, x1 = 0.3187	–	52.3
303.15 K, x1 = 0.3213	1.4335	–
303.15 K, x1 = 0.3536	–	51.7
303.15 K, x1 = 0.3713	1.4405	–
303.15 K, x1 = 0.3802	–	51.2
303.15 K, x1 = 0.3967	1.443	–
303.15 K, x1 = 0.4191	–	50
303.15 K, x1 = 0.4301	1.4455	–
303.15 K, x1 = 0.4523	–	49.9
303.15 K, x1 = 0.501	–	47.4
303.15 K, x1 = 0.59	–	45.2
303.15 K, x1 = 0.5964	1.459	–
303.15 K, x1 = 0.7027	–	43.4
303.15 K, x1 = 0.7685	1.468	–
303.15 K, x1 = 0.8088	–	42.1
303.15 K, x1 = 0.8945	–	41.4
308.15 K, x1 = 0.0121	1.3395	69.2
308.15 K, x1 = 0.0202	1.343	67.9
308.15 K, x1 = 0.1044	–	59.8
308.15 K, x1 = 0.1467	1.4	–
308.15 K, x1 = 0.1979	–	54.8
308.15 K, x1 = 0.2455	1.419	–
308.15 K, x1 = 0.2507	–	53.2
308.15 K, x1 = 0.2959	1.428	–
308.15 K, x1 = 0.2999	–	51.5
308.15 K, x1 = 0.3187	–	51.4
308.15 K, x1 = 0.3213	1.432	–
308.15 K, x1 = 0.3536	–	50.6
308.15 K, x1 = 0.3713	1.4395	–
308.15 K, x1 = 0.3802	–	50.3
308.15 K, x1 = 0.3967	1.442	–
308.15 K, x1 = 0.4191	–	49.2
308.15 K, x1 = 0.4301	1.4445	–
308.15 K, x1 = 0.4523	–	49.1
308.15 K, x1 = 0.501	–	46.7
308.15 K, x1 = 0.59	–	44.6
308.15 K, x1 = 0.5964	1.458	–
308.15 K, x1 = 0.7027	–	42.6
308.15 K, x1 = 0.7685	1.466	–
308.15 K, x1 = 0.8088	–	41.5
308.15 K, x1 = 0.8945	–	40.9
313.15 K, x1 = 0.0121	–	67.6
313.15 K, x1 = 0.0202	–	66.9
313.15 K, x1 = 0.1044	–	58.7
313.15 K, x1 = 0.1979	–	53.9
313.15 K, x1 = 0.2507	–	52.3
313.15 K, x1 = 0.2999	–	50.6
313.15 K, x1 = 0.3187	–	50.4
313.15 K, x1 = 0.3536	–	50
313.15 K, x1 = 0.3802	–	49.5
313.15 K, x1 = 0.4191	–	48.4
313.15 K, x1 = 0.4523	–	48.2
313.15 K, x1 = 0.501	–	46
313.15 K, x1 = 0.59	–	43.8
313.15 K, x1 = 0.7027	–	42.1
313.15 K, x1 = 0.8088	–	40.9
313.15 K, x1 = 0.8945	–	40.3
318.15 K, x1 = 0.0121	–	66.4
318.15 K, x1 = 0.0202	–	65.8
318.15 K, x1 = 0.1044	–	57.9
318.15 K, x1 = 0.1979	–	53
318.15 K, x1 = 0.2507	–	51.2
318.15 K, x1 = 0.3218	–	50.7
318.15 K, x1 = 0.3506	–	49.7
318.15 K, x1 = 0.3549	–	49.4
318.15 K, x1 = 0.3802	–	48.6
318.15 K, x1 = 0.4191	–	47.5
318.15 K, x1 = 0.4523	–	47.3
318.15 K, x1 = 0.501	–	45.1
318.15 K, x1 = 0.59	–	43.1
318.15 K, x1 = 0.7027	–	41.4
318.15 K, x1 = 0.8088	–	40.4
318.15 K, x1 = 0.8945	–	39.8
323.15 K, x1 = 0.0121	–	65.3
323.15 K, x1 = 0.0202	–	64.8
323.15 K, x1 = 0.1044	–	57
323.15 K, x1 = 0.1979	–	52.2
323.15 K, x1 = 0.2507	–	50.3
323.15 K, x1 = 0.3218	–	49.9
323.15 K, x1 = 0.3506	–	48.7
323.15 K, x1 = 0.3549	–	48.4
323.15 K, x1 = 0.3802	–	47.7
323.15 K, x1 = 0.4191	–	46.7
323.15 K, x1 = 0.4523	–	46.3
323.15 K, x1 = 0.501	–	44.4
323.15 K, x1 = 0.59	–	42.3
323.15 K, x1 = 0.7027	–	40.8
323.15 K, x1 = 0.8088	–	39.8
323.15 K, x1 = 0.8945	–	39.2
328.15 K, x1 = 0.0121	–	65.1
328.15 K, x1 = 0.0202	–	63.8
328.15 K, x1 = 0.1044	–	55.1
328.15 K, x1 = 0.1979	–	51.1
328.15 K, x1 = 0.2507	–	49.4
328.15 K, x1 = 0.3218	–	49
328.15 K, x1 = 0.3506	–	47.7
328.15 K, x1 = 0.3549	–	47.4
328.15 K, x1 = 0.3802	–	46.8
328.15 K, x1 = 0.4191	–	45.9
328.15 K, x1 = 0.4523	–	45.3
328.15 K, x1 = 0.501	–	43.5
328.15 K, x1 = 0.59	–	41.7
328.15 K, x1 = 0.7027	–	40.2
328.15 K, x1 = 0.8088	–	39.2
328.15 K, x1 = 0.8945	–	38.7
